# In a melting point compilation (Tetko et al.; mined from patent text by program, amines drawn as free bases though some values may be those of a salt):
row,melting point,SMILES
1,124 to 126 °C,CC(C)(C)OC(=O)C(N)c1ccc(C(=O)O)cc1[N+](=O)[O-] (configuration not stated)
2,216 to 217 °C,CC1SC(=O)N(C(=O)C2CC3CCC2(C)C3(C)C)N=C1c1ccc2c(c1)CCCN2C(=O)c1ccc2c(c1)OCO2 (configuration not stated)
3,108 to 109 °C,C=C(C)C(=O)Oc1ccc(S(=O)(=O)ON=C2CCCc3ccccc32)cc1
4,108 to 109 °C,Cc1c(C)n(CC2CCCCC2)c2c(OCc3ccc(F)cc3)nncc12
5,204 to 209 °C,O=C(c1ccccc1)C(O)c1ccc(Cl)c(Cl)c1 (configuration not stated)
6,129 to 130 °C,COc1ccc(S(=O)(=O)Nc2ccccc2NC(=O)c2ccccc2C)cc1
7,278 to 284 °C,CC1(C)Oc2ccc(C#N)cc2C(n2ccc(-c3ccc([N+](=O)[O-])cc3)cc2=O)C1O (configuration not stated)
8,161 to 162 °C,CC(=O)Nc1cc(C)c2c(c1C)CC(C)(C)O2
9,202 to 204 °C,CCOC=Cc1c(OC)c(=O)[nH]c2cc(Cl)ccc2c1=O
10,123 °C,COc1ccc(S(=O)(=O)Nc2c(C(=O)O)cc(C#N)c(Cc3ccccc3)c2C)cc1
11,137 to 138 °C,CC(C)(C)OC(=O)C(CC(=O)O)N1C(=O)C2NC(C)(C)SC21 (configuration not stated)
12,228 °C,CS(=O)(=O)NC(=O)c1cc(Oc2c(Cl)cc(Cl)cc2Cl)ccc1[N+](=O)[O-]
13,62 to 67 °C,c1ccc(-c2ccccc2OCCCCOc2ccccc2-c2ccccc2)cc1
14,88 °C,CCOC(=O)CCCCC(=O)OC[C@@H]1CC(c2ccc(-c3ccc(N4C[C@H](Cn5ccnn5)OC4=O)cc3F)cn2)=NO1
15,253 °C,Cc1nc(NC(=O)C2=C(O)c3ccc4ccccc4c3S(=O)(=O)N2)sc1C
16,215 to 218 °C,O=C(Nc1ccc(C(=O)N2CCc3sc(Cc4ccccn4)nc3-c3ccccc32)cc1)c1ccccc1-c1ccccc1
17,82 to 86 °C,COC(=O)NC(=N)CC(C)C
18,173 to 175 °C,CCOC(=O)C1=C(C)NC(=S)N(C(=O)c2ccccc2)C1c1cccc([N+](=O)[O-])c1 (configuration not stated)
19,53 to 55 °C,NCCCC(F)(F)C(F)(F)C(F)(F)C(F)(F)C(F)(F)C(F)(F)C(F)(F)C(F)(F)C(F)(F)C(F)(F)F
20,179 to 180 °C,COc1cc(N)c(Cl)cc1C(=O)NCC1CN(CC2CCN(C(=O)N(C)C)CC2)CCO1 (configuration not stated)
21,170 °C,CCc1ccc(OC)c(-c2csc(NC(=O)c3ccc(C(=O)NCCN4CCCC4)cc3)n2)c1
22,123 to 124 °C,COc1ccc2c(c1)NC1(CCN(Cc3ccccc3)CC1)c1cccn1-2
23,49 to 51 °C,CCOC(=O)NC1=C(C(=O)OCC)CCC1
24,80 to 83 °C,CNS(=O)(=O)c1ccc(Oc2ccc(Cl)cc2)cc1

row,melting point,SMILES
1,> 330 °C,O=c1c2c(n(-c3ccccc3)c3c1CCc1cc(O)ccc1-3)NCCC2
2,127 to 128 °C,CCn1cnc2c(Nc3cccc(Cl)c3)nc(Cl)nc21
3,130 to 131 °C,COc1cc(OC)nc(N2CCN(Cc3ccc(CNC(C)=O)cc3)CC2)n1
4,204 to 205 °C,CCn1c(=N)c(-c2cccs2)cc2cnc(Nc3ccccc3)nc21
5,169 °C,CC(C)(C)OC(=O)Nc1ccc(C#Cc2ccc(F)cc2)cc1NC(=O)CC(=O)c1ccnc(-n2ccnc2)c1
6,77 to 78 °C,CCOC(=O)c1[nH]c2ccc(F)cc2c1N
7,109 to 112 °C,Fc1ccc2[nH]cc(Cc3cccnc3)c2c1
8,> 300 °C,O=C(O)c1nc2cc(-n3cccc3)c([N+](=O)[O-])cc2[nH]c1=O
9,59 to 62 °C,CC1(C)CC(OC(=O)CCCCCNC(=O)OC2CC(C)(C)NC(C)(C)C2)CC(C)(C)N1
10,141 to 142 °C,CN(C)CCNC(=O)Nc1ccccc1
11,106 to 107 °C,CON(C)C(=O)Nc1cc(C(C)(C)C)on1
12,115 to 120 °C,CC(C)(C)OC(=O)N(CCO)C1CCN(c2ccc3c(NC(=O)CC4CCCCC4)c(Cl)ccc3n2)C1 (configuration not stated)
13,124 to 125 °C,COc1ccc(CCc2ccc(NC(=O)C(=O)c3ccccc3O)cc2)cc1OC
14,76 to 80 °C,CCCOc1ccc(CC(=O)NCC(=O)OC)cc1Cl
15,> 275 °C,CC(=O)Nc1ccc(-c2cc(-c3nc4ccccc4c(=O)n3-c3cccc(C)c3)sc2N2CCOCC2)cc1
16,70 to 71 °C,Nc1cccc(C(=O)OC2CCN(Cc3ccccc3)CC2)c1
17,191 to 193 °C,Cc1c(CCC(=O)O)cc(C(C)(C)C)c(O)c1C
18,164 to 165 °C,COc1ccccc1N1CCN(CC(O)CS(=O)c2ccc(F)cc2)CC1 (configuration not stated)
19,69.5 to 71 °C,Clc1ccc(C(c2ccccc2)c2ccccc2)cn1
20,200 to 202 °C,CC(=O)N(C[C@H]1CN(c2ccc(N3CCC4(CC3)OCCO4)c(F)c2)C(=O)O1)C(C)=O
21,85 to 87 °C,CC(C)(CO)C1CCN(CC#Cc2cc(C(F)(F)F)cc(C(F)(F)F)c2)CC1
22,183 to 185 °C,O=C(O)CCCOc1ccc(CSc2[nH]nc(NS(=O)(=O)c3c(Cl)cccc3Cl)c2-c2ccccn2)cc1
23,143 to 145 °C,COCCOC(=O)c1ccc(C)c(-n2c(C)cc(OCc3ccccc3CNC(=O)Nc3cc(C(C)(C)C)nn3-c3cccc(OCCO)c3)c(Cl)c2=O)c1
24,85 °C,CCC(C)N(C)C(=O)c1cc2ccccc2c(-c2ccccc2F)n1 (configuration not stated)

row,melting point,SMILES
1,193 to 194 °C,N#Cc1cn(-c2ccc([N+](=O)[O-])c(N)c2)cc1-c1ccccc1
2,200 to 203 °C,O=c1cccc(-c2ccc(Cl)cc2)[nH]1
3,57 to 58 °C,Brc1ccc(N=NSc2ccccc2)c2ccccc12
4,62 °C,CCCCC#CC(C)(O)c1ccc(-c2ccc(F)cc2)cc1 (configuration not stated)
5,127 to 129 °C,COc1ccc2c(=O)c3ccccc3oc2c1
6,93.7 °C,COc1ccc([C@]2(C)CNC(=O)O2)cc1OCC(C)C
7,190 to 192 °C,COC(C)=NS(=O)(=O)c1nc(-c2ccc(O)cc2)ns1
8,116 °C,CCOC(OCC)(c1ccc(F)cc1)C1CCN(CCc2c(C)nc3scc(C)n3c2=O)CC1
9,65 to 68 °C,Cc1ccccc1-c1cc(O)ccc1O
10,258 to 260 °C,O=C(NCCc1ccncc1)c1[nH]c2ccc(Cl)cc2c1S(=O)(=O)c1ccccc1
11,200 to 201 °C,COC(=O)c1ccc(OCC2CN(c3ccc([N+](=O)[O-])cc3)C(=O)O2)cc1 (configuration not stated)
12,170 to 171 °C,CCOC(=O)c1cc(OCN2C(=O)c3c(C(C)C)cc(OC)cc3S2(=O)=O)n(-c2ccccc2)n1
13,198 to 202 °C,CN(C)C(=O)c1ccc(C=O)cc1
14,200 to 202 °C,COC(=O)c1ccc2oc3c(c(=O)c2c1)CCC3=Cc1cccc(C)n1
15,148 to 151 °C,O=C(N[C@H]1CC[C@H](O)CC1)OCc1ccccc1
16,141 to 143 °C,CC(C)c1ccc(OC(C)(Cc2ccc(OCCNC(=O)c3ccc(-c4ccccn4)cc3)cc2)C(=O)O)cc1 (configuration not stated)
17,47 to 48 °C,COc1ccc(Br)cc1N1CCCC1
18,142 °C,COc1cc2c(cc1Nc1ncc(Cl)c(Nc3ccccc3S(=O)(=O)N3CCCC3)n1)NC(=O)CN(CC1CC1)C2
19,67 to 68 °C,CCN(CC)C(=O)n1ccc(S(=O)(=O)c2ccccc2OC)n1
20,94 to 97 °C,O=C1c2cc(OCc3ccccn3)ccc2CC1Cc1ccccc1 (configuration not stated)
21,147 to 148 °C,O=C(O)CON=C(c1ccc(Cl)cc1)c1ccc(Cl)cc1
22,205 °C,COc1ccc(-c2cc(-c3cccc(Br)n3)nc(-c3cccc(Br)n3)c2)cc1
23,103 °C,CC(=O)Nc1cc(C(F)(F)F)ccc1SCC#N
24,182 °C,Cn1c(CCN2CCC(c3ccccc3)CC2)nc2ccc3ccccc3c21

row,melting point,SMILES
1,117 to 119 °C,N#Cn1nc(-c2ccccc2)c(=O)cc1Cl
2,> 300 °C,O=[N+]([O-])c1cc2nc(O)c(O)nc2c2c1CCCC2
3,163 to 164 °C,COc1cc(COc2nc(-c3ccccc3)ncc2C(=O)O)ccc1OCc1nc(-c2ccco2)oc1C
4,93 to 94 °C,CCCOc1ccc(N(C)S(=O)(=O)c2ccc(C)cc2)c([N+](=O)[O-])c1
5,131 to 132 °C,C=C(C)c1ccc(-c2ccc(OC(C)=O)cc2)cc1
6,226 to 228 °C,CN1CCN(C2=NC(=O)C(=Cc3cccc(-c4cc(F)c(O)c(C56CC7CC(CC(C7)C5)C6)c4)c3)S2)CC1
7,128 to 129 °C,CC(C)(C)c1cc(O)cc(C(C)(C)C)c1Sc1nnc(-c2ccccn2)o1
8,42 to 44 °C,CC(C)N(CCCCOc1ccc(-c2nnc(CSCCOc3ccccc3)o2)cc1)C(C)C
9,74.5 to 76 °C,CCCCCCOc1cc(C=O)c(OCCCCCC)cc1C=O
10,51 to 54 °C,COc1ccc(NS(=O)(=O)c2ccc(N)cc2OC)cc1
11,35 to 36 °C,CCCCNc1nc(C)cc(Cl)n1
12,68 to 71 °C,CN(C(=O)CCC#Cc1ccccn1)c1ccccc1
13,74 to 76 °C,FC(F)Sc1nnc(-c2ccc(Cl)cc2)s1
14,203 to 205 °C,COc1ccc(C(=O)Nc2ccc(F)cc2)cc1NC(=S)Nc1ccc(C(=O)O)cc1
15,118 to 119 °C,CC(=O)CC(=O)N1c2ccc(C(O)(C(F)(F)F)C(F)(F)F)cc2CC1C (configuration not stated)
16,77 to 79 °C,COC(=O)c1[nH]ccc1OC(C)C
17,118 to 122 °C,COC(=O)C1=C(C)NC(c2ncsc2Cl)=NC1c1ccc(F)cc1 (configuration not stated)
18,125 °C,Clc1cccc(-c2cc(Cl)nc3ccc(Br)cc23)c1
19,61.1 to 63.6 °C,C[C@H]1CCCC(C)(C)[C@@H]1[C@@H](O)c1ccc(Cl)c(F)c1
20,127 to 129 °C,COC(=O)c1cc(OC)c([N+](=O)[O-])cc1N
21,196 to 198 °C,COc1cc(C(C)C)c2c(c1)S(=O)(=O)N(COc1cc(C)nn1-c1ccc([N+](=O)[O-])cc1)C2=O

row,SMILES,melting point
1,N#Cc1nn(-c2c(Cl)cc(C(F)(F)F)cc2Cl)c(N)c1C=NO,175 to 178 °C
2,COc1cccc(C23CCN(C)CC2Cc2c([nH]c(C(=O)NCc4ccccc4)c2C)C3)c1 (configuration not stated),162 to 164 °C
3,CC(N)Cn1ncc2ccc3c(c21)CC(O)CO3 (configuration not stated),46 to 51 °C
4,N#CC(=Cc1ccc(O)c(O)c1)C(N)=S,213 °C
